From ChEMBL document CHEMBL5096234, “Discovery, Optimization, and Evaluation of Selective CDK4/6 Inhibitors for the Treatment of Breast Cancer” (J Med Chem, 2022)
One block for each compound: values may come before it.

Columns and labels:
CDK6/cyclin D1 = CDK6/cyclin D1 (Homo sapiens, UniProt Q00534); test: Inhibition of CDK6/cyclin-D1 (unknown origin) in presence of ATP by time resolved-FRET assay; assay type: protein-complex assay
[1] = Inhibition of CDK1/cyclin B (unknown origin) in presence of ATP by time resolved-FRET assay; design: species or system Homo sapiens
CDK2/Cyclin A2 = CDK2/Cyclin A2 (Homo sapiens, UniProt P24941); test: Inhibition of CDK2/Cyclin A (unknown origin) in presence of ATP by time resolved-FRET assay; assay type: protein-complex assay
CDK4/Cyclin D3 = CDK4/Cyclin D3 (Homo sapiens, UniProt P11802); test: Inhibition of CDK4/cyclin-D3 (unknown origin) in presence of ATP by time resolved-FRET assay; assay type: protein-complex assay
Chain of CDK4/Cyclin D3 (P11802 whole entry): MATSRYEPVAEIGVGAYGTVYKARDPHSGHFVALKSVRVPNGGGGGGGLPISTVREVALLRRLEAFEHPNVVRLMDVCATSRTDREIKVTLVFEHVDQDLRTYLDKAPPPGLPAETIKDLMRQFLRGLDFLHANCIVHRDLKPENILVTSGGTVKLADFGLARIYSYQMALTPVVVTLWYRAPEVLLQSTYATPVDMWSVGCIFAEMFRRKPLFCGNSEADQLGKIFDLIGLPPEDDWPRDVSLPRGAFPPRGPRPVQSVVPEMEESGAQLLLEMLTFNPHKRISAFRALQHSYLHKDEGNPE
Chain of CDK4/Cyclin D3 (P30281 whole entry, further chain): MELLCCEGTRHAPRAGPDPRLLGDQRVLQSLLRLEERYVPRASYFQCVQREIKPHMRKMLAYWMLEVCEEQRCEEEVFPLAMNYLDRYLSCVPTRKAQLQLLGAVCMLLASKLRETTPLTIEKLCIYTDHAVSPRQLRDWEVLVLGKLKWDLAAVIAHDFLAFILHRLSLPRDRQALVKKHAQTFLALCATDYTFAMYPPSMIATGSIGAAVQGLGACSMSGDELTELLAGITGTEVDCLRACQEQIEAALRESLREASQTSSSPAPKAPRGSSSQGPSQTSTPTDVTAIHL

CDK7/Cyclin H/MNAT1 = CDK7/Cyclin H/MNAT1 (Homo sapiens, UniProt P50613); test: Inhibition of CDK7/cyclin H/MAT1 (unknown origin) in presence of ATP by time resolved-FRET assay; assay type: protein-complex assay
Chain of CDK7/Cyclin H/MNAT1 (P51946 whole entry): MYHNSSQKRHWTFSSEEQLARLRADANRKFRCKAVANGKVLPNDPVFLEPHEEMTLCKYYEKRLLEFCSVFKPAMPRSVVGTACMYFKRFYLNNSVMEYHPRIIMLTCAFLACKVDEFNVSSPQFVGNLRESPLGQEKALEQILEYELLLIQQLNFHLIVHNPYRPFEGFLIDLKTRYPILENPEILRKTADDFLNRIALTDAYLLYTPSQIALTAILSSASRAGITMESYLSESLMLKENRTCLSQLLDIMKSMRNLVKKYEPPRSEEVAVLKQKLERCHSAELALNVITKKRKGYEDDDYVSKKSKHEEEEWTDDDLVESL
Chain of CDK7/Cyclin H/MNAT1 (P50613 whole entry): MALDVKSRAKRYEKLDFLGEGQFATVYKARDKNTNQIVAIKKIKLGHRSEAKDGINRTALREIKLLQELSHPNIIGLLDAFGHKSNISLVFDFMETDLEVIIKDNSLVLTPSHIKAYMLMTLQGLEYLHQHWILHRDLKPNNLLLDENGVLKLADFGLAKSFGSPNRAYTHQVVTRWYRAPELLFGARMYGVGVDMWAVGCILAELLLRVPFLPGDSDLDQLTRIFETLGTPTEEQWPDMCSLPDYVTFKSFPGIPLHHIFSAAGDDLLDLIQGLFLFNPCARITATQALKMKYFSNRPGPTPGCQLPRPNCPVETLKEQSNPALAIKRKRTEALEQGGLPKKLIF
Chain of CDK7/Cyclin H/MNAT1 (P51948 whole entry, further chain): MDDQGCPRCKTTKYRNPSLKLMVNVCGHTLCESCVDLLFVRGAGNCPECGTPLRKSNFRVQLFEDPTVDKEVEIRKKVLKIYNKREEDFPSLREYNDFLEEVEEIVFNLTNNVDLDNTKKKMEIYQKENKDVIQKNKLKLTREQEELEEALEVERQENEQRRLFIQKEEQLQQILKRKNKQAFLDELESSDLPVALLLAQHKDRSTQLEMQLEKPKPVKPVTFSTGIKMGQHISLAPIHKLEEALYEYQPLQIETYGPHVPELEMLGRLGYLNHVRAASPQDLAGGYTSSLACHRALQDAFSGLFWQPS

CDK9/cyclin T1 = CDK9/cyclin T1 (Homo sapiens, UniProt P50750); test: Inhibition of CDK9/Cyclin T1 (unknown origin) in presence of ATP by time resolved-FRET assay; assay type: protein-complex assay
Chain of CDK9/cyclin T1 (O60563 whole entry): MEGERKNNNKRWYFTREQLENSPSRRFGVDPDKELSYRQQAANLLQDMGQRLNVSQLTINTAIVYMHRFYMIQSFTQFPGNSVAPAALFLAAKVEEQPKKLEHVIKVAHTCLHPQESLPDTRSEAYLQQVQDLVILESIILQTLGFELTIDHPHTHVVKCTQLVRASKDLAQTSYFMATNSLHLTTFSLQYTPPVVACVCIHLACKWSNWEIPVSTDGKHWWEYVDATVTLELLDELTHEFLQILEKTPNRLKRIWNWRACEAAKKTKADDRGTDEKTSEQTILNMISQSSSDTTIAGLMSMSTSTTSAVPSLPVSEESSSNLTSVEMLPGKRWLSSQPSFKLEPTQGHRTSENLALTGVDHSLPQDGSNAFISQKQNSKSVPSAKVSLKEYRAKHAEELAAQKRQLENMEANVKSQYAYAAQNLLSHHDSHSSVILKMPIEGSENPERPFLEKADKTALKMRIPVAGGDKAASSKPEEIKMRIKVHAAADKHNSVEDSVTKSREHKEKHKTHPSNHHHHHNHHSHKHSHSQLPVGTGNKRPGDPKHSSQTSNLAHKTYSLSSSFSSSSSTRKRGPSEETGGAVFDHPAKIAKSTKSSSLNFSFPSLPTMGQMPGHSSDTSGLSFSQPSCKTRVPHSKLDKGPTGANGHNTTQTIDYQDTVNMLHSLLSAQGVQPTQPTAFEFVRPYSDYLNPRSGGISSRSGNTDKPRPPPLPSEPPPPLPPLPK
Chain of CDK9/cyclin T1 (P50750 whole entry): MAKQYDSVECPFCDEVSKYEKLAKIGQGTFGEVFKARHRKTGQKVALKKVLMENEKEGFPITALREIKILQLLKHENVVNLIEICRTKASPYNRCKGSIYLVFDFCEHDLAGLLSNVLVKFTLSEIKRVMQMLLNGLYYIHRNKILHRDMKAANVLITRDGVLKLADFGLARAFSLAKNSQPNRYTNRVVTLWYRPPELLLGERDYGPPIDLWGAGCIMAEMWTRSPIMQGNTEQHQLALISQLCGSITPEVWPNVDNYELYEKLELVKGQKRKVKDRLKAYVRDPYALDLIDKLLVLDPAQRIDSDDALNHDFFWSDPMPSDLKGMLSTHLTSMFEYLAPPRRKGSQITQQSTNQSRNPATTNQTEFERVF

MCF7 [2] = test: Antiproliferative activity against human MCF7 cells assessed as cell growth inhibition incubated for 72 hrs by CCK-8 assay; assay type: functional
T47D [3] = test: Antiproliferative activity against human T47D cells assessed as cell growth inhibition incubated for 72 hrs by CCK-8 assay; assay type: functional
ZR-75-1 = test: Antiproliferative activity against human ZR-75-1 cells assessed as cell growth inhibition incubated for 72 hrs by CCK-8 assay; assay type: functional
MCF-10A = test: Antiproliferative activity against human MCF-10A cells assessed as cell growth inhibition incubated for 72 hrs by CCK-8 assay; assay type: functional
MCF7 [4] = test: Induction of cell cycle arrest in human MCF7 cells assessed as accumulation of cells at G1 phase at 2.5 uM incubated for 24 hrs by propidium iodide staining based flow cytometry analysis (reference value: 57.38%); assay type: functional
MCF7 [5] = test: Induction of cell cycle arrest in human MCF7 cells assessed as accumulation of cells at G2 phase at 2.5 uM incubated for 24 hrs by propidium iodide staining based flow cytometry analysis (reference value: 29.66%); assay type: functional
T47D [6] = test: Induction of cell cycle arrest in human T47D cells assessed as accumulation of cells at G1 phase at 1.5 uM incubated for 24 hrs by propidium iodide staining based flow cytometry analysis (reference value: 69.55 %); assay type: functional
T47D [7] = test: Induction of cell cycle arrest in human T47D cells assessed as accumulation of cells at G2 phase at 1.5 uM incubated for 24 hrs by propidium iodide staining based flow cytometry analysis (reference value: 16.57%); assay type: functional
MCF7 [8] = test: Induction of cell cycle arrest in human MCF7 cells assessed as accumulation of cells at G1 phase at 1.5 uM incubated for 24 hrs by propidium iodide staining based flow cytometry analysis (reference value: 57.38%); assay type: functional
MCF7 [9] = test: Induction of cell cycle arrest in human MCF7 cells assessed as accumulation of cells at G2 phase at 1.5 uM incubated for 24 hrs by propidium iodide staining based flow cytometry analysis (reference value: 29.66%); assay type: functional

Chain of CDK6/cyclin D1 (P24385 whole entry): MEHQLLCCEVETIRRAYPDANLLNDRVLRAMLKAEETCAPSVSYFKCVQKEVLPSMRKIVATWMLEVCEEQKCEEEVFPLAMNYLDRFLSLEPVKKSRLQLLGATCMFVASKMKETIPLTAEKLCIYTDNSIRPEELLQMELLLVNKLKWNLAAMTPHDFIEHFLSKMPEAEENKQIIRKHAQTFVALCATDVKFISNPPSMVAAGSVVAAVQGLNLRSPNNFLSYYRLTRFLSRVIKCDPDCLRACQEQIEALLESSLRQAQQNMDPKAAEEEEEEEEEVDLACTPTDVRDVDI
Chain of CDK6/cyclin D1 (Q00534 whole entry): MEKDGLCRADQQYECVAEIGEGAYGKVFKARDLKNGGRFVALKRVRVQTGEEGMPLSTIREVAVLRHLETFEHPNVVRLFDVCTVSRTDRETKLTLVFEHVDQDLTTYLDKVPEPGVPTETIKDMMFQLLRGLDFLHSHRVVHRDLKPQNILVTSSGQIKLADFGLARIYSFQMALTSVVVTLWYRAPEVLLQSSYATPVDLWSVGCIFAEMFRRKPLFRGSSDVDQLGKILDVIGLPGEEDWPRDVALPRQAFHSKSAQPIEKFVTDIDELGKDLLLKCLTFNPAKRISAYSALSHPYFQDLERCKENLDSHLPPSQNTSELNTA

Compound: CC(C)(C)OC(=O)N1CCN(C(=O)c2ccc(Nc3ncc(F)c(-c4ccc5c(c4)OCCO5)n3)nc2)CC1
IC50 (CDK6/cyclin D1): > 10000 nM

Compound: CCN1CCN(C(=O)c2ccc(Nc3ncc(F)c(-c4ccc5c(c4)OCCC5=O)n3)nc2)CC1
IC50 (CDK6/cyclin D1): 336 nM

Compound: O=C1NCCc2cc(-c3nc(Nc4ccc(N5CCNCC5)cn4)ncc3F)ccc21
IC50 (CDK6/cyclin D1): 36 nM
IC50 [1]: 148 nM
IC50 (CDK2/Cyclin A2): 175 nM
IC50 (CDK4/Cyclin D3): 8 nM
IC50 (CDK7/Cyclin H/MNAT1): 8240 nM
IC50 (CDK9/cyclin T1): 382 nM
GI50 (MCF7 [2]): 2900 nM

Compound: CC(C)(C)OC(=O)N1CCN(c2ccc(Nc3ncc(F)c(-c4ccc5c(c4)OCCO5)n3)nc2)CC1
IC50 (CDK6/cyclin D1): > 10000 nM

Compound: CN1CCc2cc(-c3nc(Nc4ccc(N5CCNCC5)cn4)ncc3F)ccc2C1=O
IC50 (CDK6/cyclin D1): 32 nM
IC50 [1]: 1210 nM
IC50 (CDK2/Cyclin A2): 676 nM
IC50 (CDK4/Cyclin D3): 3 nM
IC50 (CDK7/Cyclin H/MNAT1): > 10000 nM
IC50 (CDK9/cyclin T1): 1040 nM
GI50 (MCF7 [2]): 2970 nM

Compound: CC(=O)c1c(C)c2cnc(Nc3ccc(N4CCNCC4)cn3)nc2n(C2CCCC2)c1=O [PALBOCICLIB]
GI50 (MCF7 [2]): 3940 nM
GI50 (T47D [3]): 1060 nM
GI50 (ZR-75-1): 2280 nM
GI50 (MCF-10A): 19100 nM
Activity (MCF7 [4]): 81.49%
Activity (MCF7 [5]): 14.51%
Activity (T47D [6]): 84.74%
Activity (T47D [7]): 6.13%

Compound: CCN1CCN(Cc2ccc(Nc3ncc(F)c(-c4cc(F)c5nc(C)n(C(C)C)c5c4)n3)nc2)CC1 [ABEMACICLIB]
GI50 (MCF7 [2]): 832 nM
GI50 (T47D [3]): 771 nM
GI50 (MCF-10A): 5090 nM
Activity (MCF7 [8]): 77.44%
Activity (MCF7 [9]): 17.65%
Activity (T47D [6]): 81.8%
Activity (T47D [7]): 9.32%

Compound: CC(C)N1CCc2cc(-c3nc(Nc4ccc(N5CCNCC5)cn4)ncc3F)ccc2C1=O
IC50 (CDK6/cyclin D1): 42 nM
IC50 [1]: 6960 nM
IC50 (CDK2/Cyclin A2): 495 nM
IC50 (CDK4/Cyclin D3): 14 nM
IC50 (CDK7/Cyclin H/MNAT1): 8720 nM
IC50 (CDK9/cyclin T1): 1960 nM
GI50 (MCF7 [2]): 3070 nM

Compound: CN1CCN(c2ccc(Nc3ncc(F)c(-c4ccc5c(c4)OCO5)n3)nc2)CC1
IC50 (CDK6/cyclin D1): 1140 nM

Compound: Fc1cnc(Nc2ccc(N3CCNCC3)cn2)nc1-c1ccc2c(c1)OCO2
IC50 (CDK6/cyclin D1): 120 nM

Compound: CCN1CCN(C(=O)c2ccc(Nc3ncc(F)c(-c4ccc5c(c4)CCC(=O)N5C(C)C)n3)nc2)CC1
IC50 (CDK6/cyclin D1): 3720 nM

Compound: CCN1CCN(C(=O)c2ccc(Nc3ncc(F)c(-c4ccc5c(c4)CCNC5=O)n3)nc2)CC1
IC50 (CDK6/cyclin D1): 60 nM
IC50 (CDK4/Cyclin D3): 21 nM
GI50 (MCF7 [2]): 3240 nM

Compound: CCN1CCN(C(=O)c2ccc(Nc3ncc(F)c(-c4ccc5c(c4)OCO5)n3)nc2)CC1
IC50 (CDK6/cyclin D1): 333 nM

Compound: CCN1CCN(C(=O)c2ccc(Nc3ncc(F)c(-c4ccc5c(c4)CCN(C(C)C)C5=O)n3)nc2)CC1
IC50 (CDK6/cyclin D1): 317 nM

Compound: CC(C)(C)OC(=O)N1CCN(c2ccc(Nc3ncc(F)c(-c4ccc5c(c4)OCO5)n3)nc2)CC1
IC50 (CDK6/cyclin D1): > 10000 nM

Compound: CC(C)N1CCN(C(=O)c2ccc(Nc3ncc(F)c(-c4ccc5c(c4)CCC(=O)N5C(C)C)n3)nc2)CC1
IC50 (CDK6/cyclin D1): > 1000 nM

Compound: O=C(c1ccc(Nc2ncc(F)c(-c3ccc4c(c3)OCCO4)n2)nc1)N1CCNCC1
IC50 (CDK6/cyclin D1): 117 nM

The remaining lines, values ahead:

IC50 (CDK6/cyclin D1): > 1000 nM
Compound: CC(C)N1CCN(Cc2ccc(Nc3ncc(F)c(-c4ccc5c(c4)CCC(=O)N5C(C)C)n3)nc2)CC1

IC50 (CDK6/cyclin D1): 138 nM
Compound: CC(C)N1CCN(Cc2ccc(Nc3ncc(F)c(-c4ccc5c(c4)OCCO5)n3)nc2)CC1

IC50 (CDK6/cyclin D1): 97 nM
IC50 (CDK4/Cyclin D3): 80 nM
GI50 (MCF7 [2]): 4710 nM
Compound: CCN1CCN(Cc2ccc(Nc3ncc(F)c(-c4ccc5c(c4)OCCO5)n3)nc2)CC1

IC50 (CDK6/cyclin D1): 112 nM
Compound: CCN1CCN(C(=O)c2ccc(Nc3ncc(F)c(-c4ccc5c(c4)OCCO5)n3)nc2)CC1

IC50 (CDK6/cyclin D1): > 10000 nM
Compound: CC(C)(C)OC(=O)N1CCN(Cc2ccc(Nc3ncc(F)c(-c4ccc5c(c4)OCCO5)n3)nc2)CC1

IC50 (CDK6/cyclin D1): 136 nM
Compound: Fc1cnc(Nc2ccc(CN3CCNCC3)cn2)nc1-c1ccc2c(c1)OCCO2

IC50 (CDK6/cyclin D1): 105 nM
Compound: CC(C)N1CCN(C(=O)c2ccc(Nc3ncc(F)c(-c4ccc5c(c4)OCCO5)n3)nc2)CC1

IC50 (CDK6/cyclin D1): 296 nM
Compound: CC(C)N1CCN(C(=O)c2ccc(Nc3ncc(F)c(-c4ccc5c(c4)OCO5)n3)nc2)CC1

IC50 (CDK6/cyclin D1): 660 nM
Compound: CN1CCN(c2ccc(Nc3ncc(F)c(-c4ccc5c(c4)OCCO5)n3)nc2)CC1

IC50 (CDK6/cyclin D1): 640 nM
Compound: CC(C)N1CCN(Cc2ccc(Nc3ncc(F)c(-c4ccc5c(c4)CCN(C(C)C)C5=O)n3)nc2)CC1

IC50 (CDK6/cyclin D1): 364 nM
Compound: CC(C)N1CCN(C(=O)c2ccc(Nc3ncc(F)c(-c4ccc5c(c4)OCCC5=O)n3)nc2)CC1

IC50 (CDK6/cyclin D1): 254 nM
Compound: CCN1CCN(Cc2ccc(Nc3ncc(F)c(-c4ccc5c(c4)OCO5)n3)nc2)CC1

IC50 (CDK6/cyclin D1): 81 nM
IC50 (CDK4/Cyclin D3): 36 nM
GI50 (MCF7 [2]): 3760 nM
Compound: Fc1cnc(Nc2ccc(N3CCNCC3)cn2)nc1-c1ccc2c(c1)OCCO2
